The values that follow come from patent US20060111409A1, “Medicament for treatment of diabetes” (priority 2002, published 2006).

`CC(=O)Oc1ccccc1C(=O)Nc1cc(Cl)cc(Cl)c1` returned a melting point of 218 to 219 °C.

For orientation: melting point means the temperature, or range, at which the solid turns liquid.
